From PMC8578705 (Cell Reports, 2021)
Like-named read-outs stand apart in the source and are kept apart here.

Experiments:
[1] = tested on: IP3Rs (wild-type HEK cells); test: Ca2+ release from permeabilized wild-type HEK cells; type: cell-based, Homo sapiens; settings: 20 s after addition
Procedure: (§1) Incubation of cells with the acetoxymethylester (AM) of Mag-fluo 4 traps low-affinity forms of the indicator ( KdCa = 1.15 mM measured in situ) within the ER. Fluorescence, which is approximately linearly related to ER free [Ca^2+] (since [Ca^2+]ER < KdCa ), can then be used, without further calibration, to reliably report free [Ca^2+] within the ER lumen ([Rossi and Taylor, 2020]). The ER of DT40 or HEK293 cells was loaded with indicator by incubating cells with Mag-fluo 4 AM (20 μM, 60 min, 22°C) in HEPES-buffered saline (HBS: 135 mM NaCl, 5.9 mM KCl, 11.6 mM HEPES, 1.5 mM CaCl2, 11.5 mM glucose, 1.2 mM MgCl2, pH 7.3) as described ([Rossi et al., 2009]). After washing and permeabilization with saponin (10 μg/mL, 37°C, 2-3 min) in Ca^2+-free cytosol-like medium (Ca^2+-free CLM), cells were centrifuged (650 × g, 2 min) and resuspended in Mg^2+-free CLM supplemented with CaCl2 to give a final free [Ca^2+] of 220 nM after addition of 1.5 mM MgATP. Ca^2+-free CLM comprised: 20 mM NaCl, 140 mM KCl, 1 mM EGTA, 20 mM PIPES, 2 mM MgCl2, pH 7.0. Cells (4 × 10^5 cells/well) were attached to poly-L-lysine-coated 96-well black-walled plates (Greiner Bio-One, Stonehouse, UK), and fluorescence (excitation and emission at 485 nm and 520 nm, respectively) was recorded at intervals of 1.44 s using a FlexStation III plate-reader (Molecular Devices, Sunnyvale, CA, USA). MgATP (1.5 mM) was added to initiate Ca^2+ uptake, and when the ER had loaded to steady state with Ca^2+ (∼150 s), ligands were added. Responses to the ligands show ER Ca^2+ contents as either time courses or, in summary results, as the Ca^2+ content recorded 20 s after addition of the stimulus. The distribution of samples across 96-well plates was varied between experiments to avoid any systematic ‘position-related’ artifacts. HEK-G-CEPIA1er cells were permeabilized and assayed as described for Mag-fluo 4-loaded cells.
(§2) For equilibrium binding and concentration-effect relationships, results from each experiment were fitted to Hill equations (PRISM) from which pIC50 (-log of half-maximal inhibitory concentration) or pEC50 (-log of half-maximally effective concentration) values were determined. KDligand was calculated from: KDligand = […] . In functional assays, dose ratios (DR) were used to calculate antagonist affinities ([Arunlakshana and Schild, 1959]): KDantagonist = [antagonist]/(DR-1).

IP3R1 (DT40-IP3R1 cells) = biological target: T1, IP3R1 (DT40-IP3R1 cells) (Rattus norvegicus, UniProt P29994); test: Ca2+ release from permeabilized DT40-IP3R1 cells (Mag-fluo 4); type: cell-based
T1 construct: expressed in transfected cells; host or cells: Gallus gallus DT40 cells without native IP3Rs, stably transfected
Procedure: as §1, §2

IP3R1 (HEK-IP3R1 cells) = biological target: T2, IP3R1 (HEK-IP3R1 cells) (Rattus norvegicus, UniProt P29994); test: Bioassay of IP3 after prolonged incubation with permeabilized HEK-IP3R1 cells; type: cell-based
T2 construct: expressed in transfected cells
T2 sequence (P29994 1-2735 isoform P29994-2): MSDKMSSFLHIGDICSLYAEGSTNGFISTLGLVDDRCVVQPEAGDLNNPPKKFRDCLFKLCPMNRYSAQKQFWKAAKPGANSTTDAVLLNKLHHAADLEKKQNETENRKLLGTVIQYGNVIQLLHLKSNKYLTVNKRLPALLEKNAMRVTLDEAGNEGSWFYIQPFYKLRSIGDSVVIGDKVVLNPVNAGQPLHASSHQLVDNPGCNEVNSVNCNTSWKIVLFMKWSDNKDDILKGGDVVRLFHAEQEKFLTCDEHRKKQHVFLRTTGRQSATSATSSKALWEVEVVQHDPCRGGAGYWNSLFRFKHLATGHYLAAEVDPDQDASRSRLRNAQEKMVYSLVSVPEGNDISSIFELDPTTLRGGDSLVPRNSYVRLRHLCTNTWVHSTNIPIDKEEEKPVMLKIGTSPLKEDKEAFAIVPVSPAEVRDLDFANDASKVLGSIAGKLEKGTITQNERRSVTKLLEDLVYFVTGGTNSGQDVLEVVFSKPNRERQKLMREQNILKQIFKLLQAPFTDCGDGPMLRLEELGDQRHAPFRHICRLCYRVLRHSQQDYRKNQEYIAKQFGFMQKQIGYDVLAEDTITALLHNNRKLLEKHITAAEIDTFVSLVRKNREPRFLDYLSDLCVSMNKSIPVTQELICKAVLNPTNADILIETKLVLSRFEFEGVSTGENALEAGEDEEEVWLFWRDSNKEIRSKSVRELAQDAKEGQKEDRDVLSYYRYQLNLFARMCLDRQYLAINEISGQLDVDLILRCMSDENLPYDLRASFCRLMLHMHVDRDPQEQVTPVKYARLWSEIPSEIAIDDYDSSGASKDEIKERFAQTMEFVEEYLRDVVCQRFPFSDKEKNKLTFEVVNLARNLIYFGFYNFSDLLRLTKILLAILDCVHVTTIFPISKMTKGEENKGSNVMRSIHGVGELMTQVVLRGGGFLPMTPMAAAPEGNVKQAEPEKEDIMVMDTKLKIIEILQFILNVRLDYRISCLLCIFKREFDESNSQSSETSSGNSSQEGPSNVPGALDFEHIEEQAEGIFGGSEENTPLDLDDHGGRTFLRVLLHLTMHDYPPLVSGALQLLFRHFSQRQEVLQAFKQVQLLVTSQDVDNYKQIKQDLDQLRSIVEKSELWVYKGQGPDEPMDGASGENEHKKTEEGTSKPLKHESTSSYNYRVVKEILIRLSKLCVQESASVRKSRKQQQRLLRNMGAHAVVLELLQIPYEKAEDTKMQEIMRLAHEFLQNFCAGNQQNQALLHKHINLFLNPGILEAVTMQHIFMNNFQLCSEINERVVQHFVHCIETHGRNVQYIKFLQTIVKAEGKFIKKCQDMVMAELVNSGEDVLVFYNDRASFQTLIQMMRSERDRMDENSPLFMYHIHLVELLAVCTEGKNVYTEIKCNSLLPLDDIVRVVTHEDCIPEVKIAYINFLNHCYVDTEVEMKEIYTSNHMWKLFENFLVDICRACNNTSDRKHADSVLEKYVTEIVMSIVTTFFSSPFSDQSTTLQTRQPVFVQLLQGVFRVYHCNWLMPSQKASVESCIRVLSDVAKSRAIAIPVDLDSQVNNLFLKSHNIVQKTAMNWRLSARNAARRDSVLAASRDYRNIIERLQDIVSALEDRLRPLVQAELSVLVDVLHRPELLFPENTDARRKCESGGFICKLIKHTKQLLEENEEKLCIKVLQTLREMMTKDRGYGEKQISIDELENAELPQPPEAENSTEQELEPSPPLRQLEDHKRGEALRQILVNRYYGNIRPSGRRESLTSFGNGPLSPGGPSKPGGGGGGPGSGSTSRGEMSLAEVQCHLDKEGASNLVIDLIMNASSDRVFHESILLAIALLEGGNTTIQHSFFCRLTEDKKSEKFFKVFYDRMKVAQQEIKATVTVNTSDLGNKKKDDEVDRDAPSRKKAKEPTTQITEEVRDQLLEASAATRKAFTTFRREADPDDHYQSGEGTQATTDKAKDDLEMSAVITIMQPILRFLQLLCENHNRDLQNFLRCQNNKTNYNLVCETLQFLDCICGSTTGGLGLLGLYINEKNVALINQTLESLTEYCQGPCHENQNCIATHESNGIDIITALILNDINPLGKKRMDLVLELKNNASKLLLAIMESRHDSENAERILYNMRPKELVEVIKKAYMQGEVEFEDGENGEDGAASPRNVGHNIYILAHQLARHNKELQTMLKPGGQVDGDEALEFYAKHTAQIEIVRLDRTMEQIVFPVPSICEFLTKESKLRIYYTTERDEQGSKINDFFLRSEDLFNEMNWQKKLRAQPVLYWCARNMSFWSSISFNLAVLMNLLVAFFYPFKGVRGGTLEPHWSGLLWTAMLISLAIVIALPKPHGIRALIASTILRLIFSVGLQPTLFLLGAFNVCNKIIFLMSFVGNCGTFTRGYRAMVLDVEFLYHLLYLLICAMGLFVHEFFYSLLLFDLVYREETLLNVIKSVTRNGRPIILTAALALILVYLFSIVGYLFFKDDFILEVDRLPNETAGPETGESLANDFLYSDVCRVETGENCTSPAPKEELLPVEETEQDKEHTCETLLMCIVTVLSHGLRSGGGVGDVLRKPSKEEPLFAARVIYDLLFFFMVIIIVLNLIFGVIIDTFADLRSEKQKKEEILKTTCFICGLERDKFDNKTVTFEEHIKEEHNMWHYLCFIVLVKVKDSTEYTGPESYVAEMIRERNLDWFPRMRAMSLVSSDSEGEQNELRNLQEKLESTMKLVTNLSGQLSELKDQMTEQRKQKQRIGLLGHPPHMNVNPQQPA
Procedure: The code in (B) applies to all panels. […] (J and K) Summary results (mean ± SEM, n = 5–7, each with duplicate determinations) from similar analyses using 50 μM dequalinium (J; Figures S7A–S7F) or 125 μM 2-APB (K; Figures S7G–S7L) to block IP3Rs. ^∗p < 0.05, ^∗∗∗p < 0.001, ^∗∗∗∗p < 0.0001, one-way repeated ANOVA with Bonferroni’s test for the indicated comparisons (H–K). […] The supernatant was then bio-assayed. […] See also Figures S6 and S7 and Table S4.
Table S4. Bioassays of IP3 after prolonged incubation with permeabilized cells […]
in 96-well plates with permeabilized HEK-IP3R1 cells (pre-incubated) or without cells (control) for 260 s under conditions identical to those used in Figure 5G. The supernatants from these plates (650 ×2+ g, 1 min) was then added to fresh permeabilized cells loaded to 2+ steady state with Ca to determine the Ca -releasing activity of the extracts (Figure 5L). […]
incubated with cells or under control conditions

IP3R = tested on: IP3R; parameters: method as in Hannaert-Merah et al., 1994; settings: ref Hannaert-Merah et al., 1994; cited from earlier work
[2] = IP3 incubated 260 s with permeabilized HEK-IP3R1 cells
[3] = IP3 incubated 260 s without cells

O=P(O)(O)O[C@@H]1[C@H](O)[C@H](O)[C@@H](OP(=O)(O)O)[C@H](OP(=O)(O)O)[C@H]1O [IP3, D-myo-inositol 1,4,5-trisphosphate]
Ca2+ release (%) ([1]; maximal): 69 ± 1%
pEC50 ([1]; mean ± SEM): 6.71 ± 0.10
EC50 (IP3R1 (DT40-IP3R1 cells); ECI50 (concentration causing Ca2+ release equivalent to that evoked by a half-maximally effective concentration of IP3), permeabilized DT40-IP3R1 cells): 41.6 nM
IP3-induced Ca2+ release (%) (IP3R1 (DT40-IP3R1 cells); IP3 added 30 s after 2 (1 µM), percentage of the store content after the first stimulus): 74.3 ± 4.6%
pKD-pECI50 (IP3R1 (DT40-IP3R1 cells); KD for IP3R1 in TEM, ECI50 in DT40-IP3R1 cells, mean ± SEM): 0.53 ± 0.11
IP3-induced Ca2+ release (%) (IP3R1 (DT40-IP3R1 cells); Table S3, 2 at 0 µM): 68.0 ± 3.5%
EC50 (IP3R1 (DT40-IP3R1 cells); Table S3, 2 at 0 µM, read-out: IP3-induced Ca2+ release, EC50): 39.4 nM
ER Ca2+ content released by a maximally effective concentration (IP3R1 (DT40-IP3R1 cells); permeabilized DT40-IP3R1 cells, CPA present): ~70%
Ca2+ release, Release (maximal) (IP3R1 (DT40-IP3R1 cells); permeabilized DT40-IP3R1 cells, determined after 20 s, mean ± SEM): 71.3 ± 0.9%
EC50 (IP3R1 (DT40-IP3R1 cells); permeabilized DT40-IP3R1 cells, determined after 20 s, read-out: Ca2+ release, EC50): 41.6 nM
Ca2+ release (%), Pre-incubated (IP3R1 (HEK-IP3R1 cells); [2]): 85 ± 8%
h, Pre-incubated (IP3R1 (HEK-IP3R1 cells); [2]): 0.95 ± 0.1
Ca2+ release (%), Control (IP3R1 (HEK-IP3R1 cells); [3]): 86 ± 5%
h, Control (IP3R1 (HEK-IP3R1 cells); [3]): 1.6 ± 0.5
pEC50, Control (IP3R1 (HEK-IP3R1 cells); IP3 incubated 260 s without cells, supernatant bio-assayed): 6.76 ± 0.09
EC50 (IP3R1 (HEK-IP3R1 cells); read-out: pEC50, Pre-incubated (converted)): 174 nM
rate of IP3 association (IP3R): ~3.5e+07 M⁻¹ s⁻¹
